How the values were obtained:
[1] = tested on: HCV nonstructural protein NS5A; experiment: Quantitative Western blot assay; type: cell-based, Hepatitis C virus (HCV); details: 9-13 replicon cells, 48 hours with compound, second symbol of Replicon/Western
Method: Alternatively, the inhibitory activity of the compounds can be confirmed using a quantitative Western immunoblot assay utilizing antibodies specific for HCV non-structural proteins, such as NS3, NS4A NS5A and NS5B. In one embodiment of this assay, replicon cells are treated with varying concentrations of test compound to determine the concentration of test compound that yields a 50% reduction in the amount of a non-structural protein produced as compared to a control sample (IC50). A single non-structural protein may be quantified or multiple non-structural proteins may be quantified. Antibodies suitable for carrying out such immunoblot assays are available commercially (e.g., from BIODESIGN International, Saco, Me.).
Certain exemplary compounds of the invention were also tested for their ability to inhibit HCV replication using a quantitative Western blot analysis with antibodies specific for the HCV nonstructural protein NS5A. Actively dividing 9-13 replicon cells were seeded into 6-well plates at a density of 1×10^5 cells/well in a volume of 2 ml/well and incubated at 37° C. and 5% CO2 for 24 hours. Various concentrations of test compounds (in a volume of 10 ul) were added to the wells and the cells incubated for another 48 hours. Protein samples were prepared from the cultured cells, resolved on a SDS-PAGE gel and transferred to a nitrocellulose membrane. The membrane was blocked with 5% non-fat milk in PBS for 1 hour at room temperature. Primary antibody (anti NS5A antibody; BIODESIGN International, Saco, Me.) incubation was performed for 1 hour at room temperature, after which the membrane was washed 3 times (for 15 min per time) with PBST (PBS plus 0.1% Tween 20). Horseradish peroxidase conjugated secondary antibody incubation was performed for 1 hour at room temperature and the membrane was washed 3 times (for 15 min per time) with PBST. The membrane was then soaked in substrate solution (Pierce) and exposed to a film or quantified using an imager. In this assay, the amount of test compound that yielded a 50% reduction in the amount of NS5A protein translated as compared to a control sample (IC50) was determined.

[2] = molecular target: HCV replicon; experiment: HCV replicon assay (luciferase); type: cell-based, Hepatitis C virus (HCV); details: 5-2 Luc replicon cells, 24 hours with compound, luciferase emission; first symbol of Replicon/Western
Source text: In one embodiment, the inhibitory activity of the compounds can be confirmed in a replicon assay that assesses the ability of a test compound to block or inhibit HCV replication in replicon cells. One example of a suitable replicon assay is the liver cell-line Huh 7-based replicon assay described in Lohmann et al., 1999, Science 285:110-113. A specific example of this replicon assay which utilizes luciferase translation is provided in the Examples Section. In one embodiment of this assay, the amount of test compound that yields a 50% reduction in translation as compared to a control cell (IC50) may be determined.
The inhibitory activity of certain exemplary compounds of the invention was confirmed using an HCV replicon assay. The HCV replicon can include such features as the HCV 5′ untranslated region including the HCV IRES, the HCV 3′ untranslated region, selected HCV genes encoding HCV polypeptides, selectable markers, and a reporter gene such as luciferase, GFP, etc. In the assay, actively dividing 5-2 Luc replicon-comprising cells (obtained from Rolf Bartenschlager; see Lohmann et al., 1999, Science 285:110-113) were seeded at a density of between about 5,000 and 7,500 cells/well onto 96 well plates (about 90 μl of cells per well) and incubated at 37° C. and 5% CO2 for 24 hours. Then, the test compound (in a volume of about 10 μl) was added to the wells at various concentrations and the cells were incubated for an additional 24 hours before luciferase assay. The media was aspirated from each well and Bright-Glo (Promega, Madison, Wis.) luciferase assay reagents were added to each well according to the manufacturer's instructions. Briefly, the Bright-Glo reagent was diluted 1:1 with PBS and 100 μl of diluted reagent was added to each well. After 5 min of incubation at room temperature, luciferin emission was quantified with a luminometer. In this assay, the amount of test compound that yielded a 50% reduction in luciferase emission (IC50) was determined.

Row | Molecule | IC50 [1] | IC50 [2]
1 | 2,2-Dichloro-N-[3-[3-[2-(N-morpholino)-6-trifluoromethylphenyl)-5-isoxazolyl]phenyl] Acetamide [Compound 37] | ≤ 10 µM | ≤ 10 µM
2 | 2,2-Dichloro-N-[3-[3-[2-fluoro-(6-N-morpholinosulfamoyl)phenyl]-5-isoxazolyl]-phenyl] Acetamide [Compound 21] | ≤ 10 µM | ≤ 10 µM
3 | O=C(Nc1cc(-c2cc(-c3c(Cl)cccc3Cl)no2)ccc1F)C(Cl)Cl [Compound 1, 2,2-Dichloro-N-[3-[3-(2,6-dichlorophenyl)-5-isoxazolyl]-6-fluorophenyl] Acetamide] | ≤ 10 µM | ≤ 10 µM
4 | CN1CCN(c2cccc(C(F)(F)F)c2-c2cc(-c3cccc(NC(=O)C(Cl)Cl)c3)on2)CC1 [Compound 109, 2,2-Dichloro-N-[3-[3-[2-trifluoromethyl-6-(4-methylpiperazino)phenyl]-5-isoxazolyl]-phenyl] Acetamide] | – | ≤ 10 µM
5 | O=C(Nc1cccc(-c2cc(-c3c(Cl)cccc3C3CCCCC3)no2)c1)C(Cl)Cl [Compound 111, 2,2-Dichloro-N-[3-[3-(2-chloro-6-cyclohexylphenyl)-5-isoxazolyl]phenyl] Acetamide] | – | ≤ 10 µM
6 | O=C(Nc1cccc(-c2cc(-c3ccccc3OC(F)(F)F)no2)c1)C(Cl)Cl [Compound 113, 2,2-Dichloro-N-[3-[3-(2-trifluoromethoxyphenyl)-5-isoxazolyl]phenyl] Acetamide] | – | ≤ 10 µM
7 | COC(=O)c1ccccc1-c1cc(-c2cccc(NC(=O)C(Cl)Cl)c2)on1 [Compound 115, 2,2-Dichloro-N-[3-[3-(2-carbomethoxy)phenyl-5-isoxazolyl]phenyl] Acetamide] | – | ≤ 10 µM
8 | O=C(Nc1cccc(-c2cc(-c3c(Cl)cccc3-n3ccnc3)no2)c1)C(Cl)Cl [Compound 117, 2,2-Dichloro-N-[3-[3-[2-chloro-6-(N-imidazolyl)phenyl]-5-isoxazolyl]phenyl] Acetamide] | – | ≤ 10 µM
9 | CC(C)Oc1ccccc1-c1cc(-c2cccc(NC(=O)C(Cl)Cl)c2)on1 [Compound 119, 2,2-Dichloro-N-[3-[3-(2-isopropyloxyphenyl)-5-isoxazolyl]phenyl] Acetamide] | – | ≤ 10 µM
10 | CC(C)c1cccc(C(C)C)c1-c1cc(-c2cccc(NC(=O)C(Cl)Cl)c2)on1 [Compound 121, 2,2-Dichloro-N-[3-[3-(2,6-diisopropylphenyl)-5-isoxazolyl]phenyl] Acetamide] | – | ≤ 10 µM
11 | O=C(Nc1cccc(-c2cc(-c3ccccc3-c3ccccc3)no2)c1)C(Cl)Cl [Compound 123, 2,2-Dichloro-N-[3-[3-(2-phenyl)phenyl-5-isoxazolyl]phenyl] Acetamide] | – | ≤ 10 µM
12 | O=C(Nc1cccc(-c2cc(-c3c(Cl)cc(OCCN4CCCCC4)cc3Cl)no2)c1)C(Cl)Cl [Compound 125, 2,2-Dichloro-N-[3-[3-[2,6-dichloro-4-(N-piperidinylethylenoxy)phenyl]-5-isoxazolyl]-phenyl] Acetamide] | – | ≤ 10 µM
13 | COc1ccc(NC(=O)C(Cl)Cl)cc1-c1cc(-c2c(Cl)cccc2Cl)no1 [Compound 127, 2,2-Dichloro-N-[3-[3-(2,6-dichlorophenyl)-5-isoxazolyl]-4-methoxyphenyl] Acetamide] | – | ≤ 10 µM
14 | O=C(Nc1cccc(-c2cc(-c3ccccc3C3CCCC3)no2)c1)C(Cl)Cl [Compound 129, 2,2-Dichloro-N-[3-[3-(2-cyclopentylphenyl)-5-isoxazolyl]phenyl] Acetamide] | – | ≤ 10 µM
15 | CN(C)CCN(C)c1cccc(Cl)c1-c1cc(-c2cccc(NC(=O)C(Cl)Cl)c2)on1 [Compound 131, 2-Dichloro-N-[3-[3-[2-chloro-6-(N,N-dimethylethylene-N′-methylamino)phenyl]-5-isoxazolyl]-phenyl] Acetamide] | – | ≤ 10 µM
16 | O=C(Nc1cccc(-c2cc(-c3c(Cl)ccc(Cl)c3Cl)no2)c1)C(Cl)Cl [Compound 137, 2,2-Dichloro-N-[3-[3-(2,3,6-trichlorophenyl)-5-isoxazolyl]phenyl] Acetamide] | – | > 10 µM
17 | O=C(O)c1ccc(Cl)c(-c2cc(-c3cccc(NC(=O)C(Cl)Cl)c3)on2)c1Cl [Compound 139, 2,2-Dichloro-N-[3-[3-(3-carboxy-2,6-dichlorophenyl)-5-isoxazolyl]phenyl] Acetamide] | – | > 10 µM
18 | O=C(Nc1cccc(-c2cc(-c3cc(C(F)(F)F)ccc3Cl)no2)c1)C(Cl)Cl [Compound 141, 2,2-Dichloro-N-[3-[3-(2-chloro-5-trifluoromethylphenyl)-5-isoxazolyl]phenyl] Acetamide] | – | > 10 µM
19 | O=C(Nc1cccc(-c2cc(-c3c(Cl)cc(Cl)cc3OCCN3CCOCC3)no2)c1)C(Cl)Cl [Compound 143, 2,2-Dichloro-N-[3-[3-[2,4-dichloro-6-(N-morpholino-2-ethyleneoxy)phenyl]-5-isoxazolyl]-phenyl] Acetamide] | – | > 10 µM
20 | O=C(Nc1cccc(-c2cc(-c3c(Cl)cccc3Cl)no2)c1)C(F)F [Compound 145, 2,2-Difluoro-N-[3-[3-(2,6-dichlorophenyl)-5-isoxazolyl]phenyl] Acetamide] | – | > 10 µM
21 | Cc1ccc(F)c(-c2cc(-c3cccc(NC(=O)C(Cl)Cl)c3)on2)c1F [Compound 149, 2,2-Dichloro-N-[3-[3-(2,6-difluoro-3-methylphenyl)-5-isoxazolyl]phenyl] Acetamide] | – | > 10 µM
22 | CCOC(=O)C1CCN(c2cccc(Cl)c2-c2cc(-c3cccc(NC(=O)C(Cl)Cl)c3)on2)CC1 [Compound 151, 2,2-Dichloro-N-[3-[3-[2-chloro-6-(4-carboethoxypiperidino)phenyl]-5-isoxazolyl]-phenyl] Acetamide] | – | > 10 µM
23 | CS(=O)(=O)c1cccc(F)c1-c1cc(-c2cccc(NC(=O)C(Cl)Cl)c2)on1 [Compound 153, 2,2-Dichloro-N-[3-[3-(2-fluoro-6-methylsulfonyl)phenyl-5-isoxazolyl]phenyl] Acetamide] | – | > 10 µM
24 | O=C(O)c1ccccc1-c1cc(-c2cccc(NC(=O)C(Cl)Cl)c2)on1 [Compound 157, 2,2-Dichloro-N-[3-[3-(2-carboxyphenyl)-5-isoxazolyl]phenyl] Acetamide] | – | > 10 µM
25 | O=C(Nc1cccc(-c2cc(-c3ccccc3OCc3ccccc3)no2)c1)C(Cl)Cl [Compound 161, 2,2-Dichloro-N-[3-[3-(2-benzyloxyphenyl)-5-isoxazolyl]phenyl] Acetamide] | – | > 10 µM
26 | Cc1ccc(-c2cc(-c3c(Cl)cccc3Cl)no2)cc1NC(=O)C(Cl)Cl [Compound 165, 2,2-Dichloro-N-[3-[3-(2,6-dichlorophenyl)-5-isoxazolyl]-6-methylphenyl] Acetamide] | – | > 10 µM
27 | Cc1c(NC(=O)C(Cl)Cl)cccc1-c1cc(-c2c(Cl)cccc2Cl)no1 [Compound 167, 2,2-Dichloro-N-[3-[3-(2,6-dichlorophenyl)-5-isoxazolyl]-2-methylphenyl] Acetamide] | – | > 10 µM
28 | O=C(Nc1cc(-c2cc(-c3c(Cl)cccc3Cl)no2)ccc1N1CCOCC1)C(Cl)Cl [Compound 169] | – | > 10 µM
29 | O=C(Nc1cc(-c2cc(-c3c(Cl)cccc3Cl)no2)ccc1OCCN1CCOCC1)C(Cl)Cl [Compound 171, 2,2-Dichloro-N-[3-[3-(2,6-dichlorophenyl)-5-isoxazolyl]-6-(N-morpholino-2-ethyleneoxy)phenyl] Acetamide] | – | > 10 µM
30 | COc1ccc(-c2cc(-c3c(Cl)cccc3Cl)no2)cc1NC(=O)C(Cl)Cl [Compound 173, 2,2-Dichloro-N-[3-[3-(2,6-dichlorophenyl)-5-isoxazolyl]-6-methoxyphenyl] Acetamide] | – | ≤ 10 µM

From patent US6759538B2, “Substituted diphenyl heterocycles useful for treating HCV infection” (priority 2001, dated 2004)
